Data: patent US8700113B2, “Sensor for detection of carbohydrate” (Medtronic Minimed, Inc., priority 2004, dated 2014)

Tests used:
MBL [1] = biological target: T1, MBL (Homo sapiens, UniProt P11226); test: Affinity of common carbohydrate moieties for MBL; type: binding; conditions: for affinity for MBL, rank order of common carbohydrate moieties: value = moieties ranked next below (>) or above (<)
[2] = Comparison of stability of MBL and Con A in glucose assay
Protocol: Example 5 was repeated using MBL-AF594 and ConA-AF594 as lectin with 110 kDa HMCV1-dextran as analyte analogue in physiological TRIS buffer (pH 7.4, sodium, potassium and calcium present in physiological concentrations). […] Measurements were taken at 5 minute intervals using a miniaturized time resolved fluorimeter.

MBL [3] = biological target: T1, MBL; conditions: cited from earlier work

T1 sequence (P11226 21-248, species assumed): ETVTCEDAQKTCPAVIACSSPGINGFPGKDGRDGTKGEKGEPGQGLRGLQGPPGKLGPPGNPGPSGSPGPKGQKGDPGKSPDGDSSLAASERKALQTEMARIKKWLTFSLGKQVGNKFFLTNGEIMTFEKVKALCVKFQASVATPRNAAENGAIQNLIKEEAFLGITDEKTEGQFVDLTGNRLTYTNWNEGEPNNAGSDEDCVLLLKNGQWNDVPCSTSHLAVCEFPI

| Compound | affinity for MBL, rank order of common carbohydrate moieties (MBL [1]) | further results |
| --- | --- | --- |
| OC[C@H]1O[C@@](CO)(O[C@H]2O[C@H](CO)[C@@H](O[C@H]3O[C@H](CO)[C@@H](O)[C@H](O)[C@H]3O)[C@H](O)[C@H]2O)[C@@H](O)[C@@H]1O [erlose] | > myo-inositol, D-glucose, D-arabinose, D-palatinose, D-turanose, D-sorbitol, D-ribose, D-tagatose | – |
| OC[C@@H](O)[C@@H](O)[C@H](O)[C@@H](O)CO [D-sorbitol] | > D-lyxose | – |
| O=C(CO)[C@@H](O)[C@@H](O)[C@H](O)CO [D-tagatose] | > D-lyxose | – |
| O=C[C@H](O)[C@@H](O)[C@@H](O)CO [L-arabinose] | D-lyxose | – |
| O=C(CO)[C@@H](O)[C@H](O)[C@H](O)CO [D-fructose] | > myo-inositol, D-glucose, D-arabinose, D-palatinose, D-turanose, D-sorbitol, D-ribose, D-tagatose | – |
| D-turanose | > D-lyxose | – |
| MBL: collagen-like C-type collectin, human MBL | – | time stable in a glucose assay ([2]; glucose assay): at least 17 days |
| C[C@H](O)[C@@H](O)[C@@H](O)[C@H](O)C=O [L-Fucose] | > myo-inositol, D-glucose, D-arabinose, D-palatinose, D-turanose, D-sorbitol, D-ribose, D-tagatose | – |
| OC[C@H]1O[C@H](O[C@@H]2CO[C@](O)(CO)[C@@H](O)[C@@H]2O)[C@H](O)[C@@H](O)[C@@H]1O [D-leucrose] | > myo-inositol, D-glucose, D-arabinose, D-palatinose, D-turanose, D-sorbitol, D-ribose, D-tagatose | – |
| O=C[C@H](O)[C@@H](O)[C@@H](O)[C@H](O)CO [D-galactose] | D-lyxose | affinity / binding to MBL in words (MBL [1]): very low affinity |
| O[C@H]1[C@H](O)[C@@H](O)[C@H](O)[C@@H](O)[C@H]1O [myo-inositol] | > D-lyxose | – |
| SFGSGFGGGY [keratin peptide, peptide which mimics N-acetyl glucosamine] | – | inhibition of MBL (MBL [3]): can inhibit MBL |
| Concanavalin A | – | reduction in the measured phase ([2]; after 20 days, 110 kDa HMCV1-dextran, physiological TRIS buffer pH 7.4): more than 10%; time stable at body temperature ([2]; assay conditions, body temperature): less than 20 days |
| CC(=O)N[C@@H]1C(O)O[C@H](CO)[C@@H](O)[C@@H]1O (stereo partly drawn) [N-acetyl-D-mannosamine] | > myo-inositol, D-glucose, D-arabinose, D-palatinose, D-turanose, D-sorbitol, D-ribose, D-tagatose | – |
| O=C[C@@H](O)[C@@H](O)[C@H](O)CO [D-lyxose] | > lactose, L-arabinose, D-galactose | – |
| O=C[C@H](O)[C@H](O)[C@H](O)CO [D-ribose] | > D-lyxose | – |
| O=C[C@H](O)[C@@H](O)[C@H](O)[C@H](O)CO [D-glucose] | > D-lyxose | affinity / binding to MBL in words (MBL [1]): high affinity |
| MBL-AF594: human MBL stained with Alexa Fluor 594 succinimidyl ester, 2.3 dyes per subunit | – | phase measurements at each glucose level over time ([2]; 110 kDa HMCV1-dextran, physiological TRIS buffer pH 7.4, glucose cycles 2.5-50 mM): constant over time |
| O=C[C@@H](O)[C@@H](O)[C@H](O)[C@H](O)CO [D-Mannose] | > myo-inositol, D-glucose, D-arabinose, D-palatinose, D-turanose, D-sorbitol, D-ribose, D-tagatose | affinity / binding to MBL in words (MBL [1]): high affinity |
| OC[C@H]1O[C@H](OC[C@H]2OC(O)(CO)[C@@H](O)[C@@H]2O)[C@H](O)[C@@H](O)[C@@H]1O (stereo partly drawn) [D-palatinose] | > D-lyxose | – |
| O=C[C@@H](O)[C@H](O)[C@H](O)CO [D-arabinose] | > D-lyxose | – |
| CC(=O)N[C@H]1C(O)O[C@H](CO)[C@@H](O)[C@@H]1O (stereo partly drawn) [N-acetyl-D-glucosamine] | > myo-inositol, D-glucose, D-arabinose, D-palatinose, D-turanose, D-sorbitol, D-ribose, D-tagatose | affinity / binding to MBL in words (MBL [1]): high affinity |
| OC[C@H]1O[C@@H](O[C@H]2[C@H](O)[C@@H](O)C(O)O[C@@H]2CO)[C@H](O)[C@@H](O)[C@H]1O (stereo partly shown) [lactose] | D-lyxose | – |
